{"source": "patent US20110038884A1", "about": "“IMMUNOPOTENTIATING AGENT COMPRISING EP1 AGONIST” (NATIONAL UNIVERSITY CO., HAMAMATSU UNIVER. SCHOOL OF …, priority 2008, published 2011)", "key": {"[1]": {"test_system": "TRP-2-specific CTLs in cervical lymph nodes", "assay": "Activation of cytotoxic T lymphocytes in cervical lymph nodes: TRP-2-specific CTL frequency by tetramer flow cytometry after tape stripping", "type": "in vivo, C57BL/6 (B6) mice", "conditions": "relative to 100 = total mononucleocytes in cervical lymph nodes; one week after application to tape-stripped auricles; TRP-2 10 mg per side, Compound A 20 μL of 100 μM per side", "method": "The corneal layer of the auricles of C57BL/6 (B6) mice was destroyed by repeatedly carrying out (ten times) a stripping operation using adhesive tape, following which an antigen peptide or EP1 agonist was applied as a test substance. Using a solution obtained by dissolving a melanoma-specific antigen peptide (available from Peptide Business Department, Accord K.K.; abbreviated below as TRP-2) as the antigen peptide in 70% ethanol, 10 mg of the antigen peptide was applied per side of an auricle. […] One week after application of the test substance, the cervical lymph nodes were removed. The TRP-2-specific CTL frequency, relative to an arbitrary value of 100 representing the total number of mononucleocytes in the cervical lymph nodes, was determined by flow cytometric analysis (FACScaliber; Becton, Dickinson and Company) with a tetramer (Medical & Biological Laboratories Co., Ltd.). Four experimental groups were established: (1) a group in which only tape stripping (abbreviated below as TS) was carried out, (2) a group in which TRP-2 was applied after TS, (3) a group in which Compound A was applied after TS, and (4) a group in which TRP-2 and Compound A were applied after TS."}, "I-A^b": {"test_system": "I-A^b", "assay": "Expression of cell-surface molecules in cultured Langerhans cells (flow cytometry): I-A^b", "type": "cell-based, C57BL/6 mice", "conditions": "Compound A 1 μM, Langerhans cells cultured a half-day; control group 12.1", "description": "(§1) Using the same procedure as in Example 2 above, the Langerhans cells of C57BL/6 (36) mice were isolated, following which Compound A (1 μM) was added as an EP1 agonist and the cells were cultured for a half-day in a culture medium (cRPMI1640 medium; Sigma-Aldrich Japan). The cultured cells were then stained using antibodies specific to the cell-surface molecules I-A^b, B7-1 (CD80), B7-2 (CD86), CD40 and ICAM-1 (CD54), and changes in the expression of these molecules were analyzed by flow cytometry. An experimental group treated in the same way, excluding the addition of Compound A, was established as a control."}, "B7-1 (CD80)": {"test_system": "B7-1 (CD80)", "assay": "Expression of cell-surface molecules in cultured Langerhans cells (flow cytometry): B7-1", "type": "cell-based, C57BL/6 mice", "conditions": "Compound A 1 μM, Langerhans cells cultured a half-day; control group 5.9", "description": "as §1"}, "B7-2 (CD86)": {"test_system": "B7-2 (CD86)", "assay": "Expression of cell-surface molecules in cultured Langerhans cells (flow cytometry): B7-2", "type": "cell-based, C57BL/6 mice", "conditions": "Compound A 1 μM, Langerhans cells cultured a half-day; control group 65.5", "description": "as §1"}, "CD40": {"test_system": "CD40", "assay": "Expression of cell-surface molecules in cultured Langerhans cells (flow cytometry): CD40", "type": "cell-based, C57BL/6 mice", "conditions": "Compound A 1 μM, Langerhans cells cultured a half-day; control group 28.7", "description": "as §1"}, "ICAM-1 (CD54)": {"test_system": "ICAM-1 (CD54)", "assay": "Expression of cell-surface molecules in cultured Langerhans cells (flow cytometry): ICAM-1", "type": "cell-based, C57BL/6 mice", "conditions": "Compound A 1 μM, Langerhans cells cultured a half-day; control group 36.5", "description": "as §1"}, "B16 melanoma cells": {"test_system": "B16 melanoma cells", "assay": "Life-prolonging effects in melanoma-inoculated mice", "type": "in vivo, B6 mice", "conditions": "8 animals per group", "description": "B16 melanoma cells (2×10^5) were transplanted into B6 mice in the same way as in Example 4. On day 5 after transplantation, the respective test substances (TRP-2 (10 μg per side of an auricle), Compound A (20 μL of a 100 μM solution per side of an auricle)) were administered to the right auricles in B6 mice by the same method as in Example 2. The same treatment was carried out ten days later on the left auricle, following which the survival of the mice in each experimental group was examined. The following groups were established as experimental groups (each group being composed of 8 animals): (1) a group in which only TS was carried out, (2) a group in which compound A was applied after TS, and (3) a group in which TRP-2 and Compound A were applied after TS."}, "NK1.1+ cells": {"test_system": "NK1.1+ cells", "assay": "Activation of NK1.1+ cells in cervical lymph nodes", "type": "in vivo, B6 mice", "conditions": "relative to 100 = total mononucleocytes in cervical lymph nodes; two weeks after application of 20 μL of 100 μM per side after TS; TS-only group 2.7", "description": "As in Example 1, the corneal layer of the auricles of B6 mice was destroyed by repeatedly stripping ten times using adhesive tape, following which an EP1 agonist (Compound A: 20 μL of a 100 μM solution per side of an auricle) was applied as the test substance. Two weeks after application of the test substance, the cervical lymph nodes were removed. The frequency of NK1.1+ cells, relative to an arbitrary value of 100 representing the total number of mononucleocytes in the cervical lymph nodes, was determined by flow cytometric analysis. The following groups were established as experimental groups: (1) a group in which only TS was carried out, and (2) a group in which Compound A was applied after TS."}, "splenic lymphocytes": {"test_system": "splenic lymphocytes", "assay": "Splenic lymphocyte proliferative ability test (WST-1)", "type": "in vivo, B6 mice", "conditions": "cell proliferation ratio; splenic lymphocytes recovered one week after application after TS, cultured 3 days with IL-2 (10 U/mL); TS-only group 4.2", "description": "As in Example 6, TS was carried out, after which Compound A (20 μL of a 100 μM solution per side of an auricle) was applied as the substance. One week after application of the test substance, splenic lymphocytes were recovered, then cultured at 37° C. for 3 days in a culture medium (cRPMI1640 medium: Sigma-Aldrich Japan) containing IL-2 (10 U/mL). Cell proliferative ability tests were carried out using WST-1 (Takara Bio Inc.) as the cell proliferation reagent (absorbance at 450 nm). Experimental groups similar to those in Example 6 were established (with each group containing three animals).\nThe relative values of the absorption intensities in each experimental group, based on an arbitrary value of 1 for the absorbance at 450 nm when all of the WST-1 added had decomposed to formazan, indicate the percent uptake of WST-1; that is, the cell proliferation ratio."}, "[2]": {"test_system": "EL4 cells not subjected to NP pulsing", "assay": "NP-specific CTL specific lysis of calcein-labeled EL4 cells, not NP pulsed", "type": "in vivo, C57BL/6 (B6) mice", "conditions": "3 hours"}, "NP-pulsed EL4 cells": {"test_system": "NP-pulsed EL4 cells", "assay": "NP-specific CTL specific lysis of calcein-labeled EL4 cells, NP pulsed", "type": "in vivo, C57BL/6 (B6) mice", "conditions": "NP-pulsed EL4 cells (10 μg/mL NP), 3 hours"}, "[3]": {"test_system": "isolated epidermal Langerhans cells", "assay": "Activation of cytotoxic T lymphocytes in isolated Langerhans cells co-cultured with lymphocytes", "type": "cell-based, C57BL/6 (B6) mouse", "conditions": "relative to 100 = total mononucleocytes in culture medium; TRP-2 10 μg/mL, Compound A 1 μM; 7 days co-culture", "description": "An epidermal cell suspension was prepared by trypsinizing an auricle epidermal sheet removed over a given surface area from the corneal layer on one of the auricles in C57BL/6 (B6) mouse. The resulting epidermal cell suspension was subjected to panning using an antibody specific for I-A^b antigen in order to isolate epidermal Langerhans cells. Each test substance (TRP-2 (concentration, 10 μg/mL) and Compound A (1 μM)) was added to the isolated Langerhans cells (cell density, 10^5 cells/mL), following which the cells were cultured in a culture medium (cRPMI1640 medium; Sigma-Aldrich Japan). After a half-day, the cells were then co-cultured for 7 days with spleen cell lymphocytes isolated from the cervical lymph nodes of B6 mice. The frequency of TRP-2-specific CTLs, relative to an arbitrary value of 100 representing the total number of mononucleocytes in the culture medium, was subsequently determined by flow cytometric analysis (FACScaliber; Becton, Dickinson and Company) with a tetramer (Medical & Biological Laboratories Co., Ltd.). The following groups were established as experimental groups: (1) an untreated group, (2) a group in which TRP-2 was added, and (3) a group in which TRP-2 and Compound A were both added."}}}
{"compound": "CCCC[C@H](C)C[C@H](O)/C=C/[C@H]1[C@H](O)CC(=O)[C@@H]1CC(=O)C1CCC(C(=O)O)CC1", "note": "(stereo partly drawn) [Compound A, (13E)-(11α,15S,17S)-2,5-Ethano-6,9-dioxo-11,15-dihydroxy-17,20-dimethylprosta-13-enoic acid]", "values": [{"measurement": "Ratio of TRP-2-specific CTLs", "setting": "[1]", "result": 0.53}, {"measurement": "Expression of each cell-surface molecule (%): I-A^b", "setting": "I-A^b", "result": 28.3, "unit": "%"}, {"measurement": "Expression of each cell-surface molecule (%): B7-1", "setting": "B7-1 (CD80)", "result": 8.8, "unit": "%"}, {"measurement": "Expression of each cell-surface molecule (%): B7-2", "setting": "B7-2 (CD86)", "result": 65.2, "unit": "%"}, {"measurement": "Expression of each cell-surface molecule (%): CD40", "setting": "CD40", "result": 30.8, "unit": "%"}, {"measurement": "Expression of each cell-surface molecule (%): ICAM-1", "setting": "ICAM-1 (CD54)", "result": 46.3, "unit": "%"}, {"measurement": "Number of survivors", "setting": "B16 melanoma cells; day 14 after inoculation of B16 melanoma cells", "result": 8}, {"measurement": "Number of survivors", "setting": "B16 melanoma cells; day 16 after inoculation of B16 melanoma cells", "result": 8}, {"measurement": "Number of survivors", "setting": "B16 melanoma cells; day 24 after inoculation of B16 melanoma cells", "result": 8}, {"measurement": "Number of survivors", "setting": "B16 melanoma cells; day 25 after inoculation of B16 melanoma cells", "result": 8}, {"measurement": "Number of survivors", "setting": "B16 melanoma cells; day 28 after inoculation of B16 melanoma cells", "result": 8}, {"measurement": "Number of survivors", "setting": "B16 melanoma cells; day 30 after inoculation of B16 melanoma cells", "result": 8}, {"measurement": "Number of survivors", "setting": "B16 melanoma cells; day 32 after inoculation of B16 melanoma cells", "result": 8}, {"measurement": "Number of survivors", "setting": "B16 melanoma cells; day 34 after inoculation of B16 melanoma cells", "result": 8}, {"measurement": "Number of survivors", "setting": "B16 melanoma cells; day 36 after inoculation of B16 melanoma cells", "result": 4}, {"measurement": "Number of survivors", "setting": "B16 melanoma cells; day 38 after inoculation of B16 melanoma cells", "result": 0}, {"measurement": "Number of survivors", "setting": "B16 melanoma cells; day 41 after inoculation of B16 melanoma cells", "result": 0}, {"measurement": "Number of survivors", "setting": "B16 melanoma cells; day 44 after inoculation of B16 melanoma cells", "result": 0}, {"measurement": "Number of survivors", "setting": "B16 melanoma cells; day 46 after inoculation of B16 melanoma cells", "result": 0}, {"measurement": "Number of survivors", "setting": "B16 melanoma cells; day 50 after inoculation of B16 melanoma cells", "result": 0}, {"measurement": "Number of survivors", "setting": "B16 melanoma cells; day 52 after inoculation of B16 melanoma cells", "result": 0}, {"measurement": "Number of survivors", "setting": "B16 melanoma cells; day 55 after inoculation of B16 melanoma cells", "result": 0}, {"measurement": "Number of survivors", "setting": "B16 melanoma cells; day 56 after inoculation of B16 melanoma cells", "result": 0}, {"measurement": "Ratio of NK1.1+ cells", "setting": "NK1.1+ cells", "result": 3.6}, {"measurement": "Uptake of WST-1 (%)", "setting": "splenic lymphocytes", "result": 27.3, "unit": "%"}]}
{"compound": "NP: influenza virus-specific antigen peptide, nucleoprotein (NP) 366-374, Ala Ser Asn Glu Asn Met Glu Thr Met (ASNENMETM; UniProt P03466 366-374, looked up, fragment)", "values": [{"measurement": "Specific lysis", "setting": "[2]", "result": 1.2, "unit": "%"}, {"measurement": "Specific lysis", "setting": "NP-pulsed EL4 cells", "result": 11.9, "unit": "%"}]}
{"compound": "TRP-2: melanoma-specific antigen peptide, tyrosinase-related protein 2 181-188, Val Tyr Asp Phe Phe Val Trp Leu (VYDFFVWL; Tyrosinase-related protein 2 residues 181-188) [reference compound]", "values": [{"measurement": "Ratio of TRP-2-specific CTLs", "setting": "[1]", "result": 0.44}, {"measurement": "Ratio of TRP-2-specific CTLs", "setting": "[3]", "result": 3.2}]}
